Values joined by “and” are separate entries in the source; they are usually repeats but may differ in a detail not shown here. Equal values may be shown once. After the bases stand the sugars from the 5' end (letter, count) and the backbone: PS all phosphorothioate, else s phosphorothioate and o phosphodiester by linkage. HELM strings list units from the 5' end as sugar, base in round brackets, then linkage (d deoxyribose, r ribose, m 2'-O-methyl, p phosphodiester). Methylation of C is not given here. [mop] = methoxypropylphosphonate linkage; [moe] = 2'-O-(2-methoxyethyl) (MOE); [cEt] = constrained ethyl (cEt); [sp] = phosphorothioate linkage; e = 2'-O-(2-methoxyethyl) (MOE); k = constrained ethyl (cEt); d = 2'-deoxy (DNA); m = 2'-O-methyl
Experiments:
[1] = target: IRF5; details: ASO
[2] = target: HBV; details: ASO

CCCAATGCAACATCCA (sugars kekdddddddddeekk, PS)
target mRNA inhibition ([1]; KARPAS-229, 4 µM): 0%

AGGTTCTTGGACTCTC (sugars k3 d10 k3, PS)
target mRNA inhibition ([1]; KARPAS-229, 4 µM): 0%

ACATCTCCACATCAGT (sugars kkdddddddddkekek, PS)
target mRNA inhibition ([1]; KARPAS-229, 4 µM): 16%

CAGGGAGTCAGACCTA (sugars k3 d10 k3, PS)
target mRNA inhibition ([1]; KARPAS-229, 4 µM): 0%

AGATGGTGTTATCTCC (sugars kkkdddddddddkeke, PS)
target mRNA inhibition ([1]; KARPAS-229, 4 µM): 8%

GAGGAAGTGAGTCTCA (sugars k3 d10 k3, PS)
target mRNA inhibition ([1]; KARPAS-229, 4 µM): 0%

CTTCTGCAGGGAGTCA (sugars k2 d8 e4 k2, PS)
target mRNA inhibition ([1]; KARPAS-229, 4 µM): 0%

GGAAGTGAGTCTCAAA (sugars k3 d10 k3, PS)
target mRNA inhibition ([1]; KARPAS-229, 0.44444 µM): 27% | target mRNA inhibition ([1]; KARPAS-229, 1.33333 µM): 39% | target mRNA inhibition ([1]; KARPAS-229, 4 µM): 51% and 68% | target mRNA inhibition ([1]; KARPAS-229, 12 µM): 79%

TATTTCTGCTCCAGGT (sugars kkkddddddddkekek, PS)
target mRNA inhibition ([1]; KARPAS-229, 4 µM): 24%

TGTCTAGTGTCATGGA (sugars k2 d9 e3 k2, linkages s4 [mop]1 s10)
target mRNA inhibition ([1]; A-431, 0.00412 µM): 2% | target mRNA inhibition ([1]; A-431, 0.01225 µM): 11% | target mRNA inhibition ([1]; A-431, 0.03704 µM): 4% | target mRNA inhibition ([1]; A-431, 0.11111 µM): 8% | target mRNA inhibition ([1]; A-431, 0.33333 µM): 18% | target mRNA inhibition ([1]; A-431, 1 µM): 32%

CCTTCTGCAGGGAGTC (sugars kkddddddddkekekk, PS)
target mRNA inhibition ([1]; KARPAS-229, 4 µM): 0%

GGTTCTTGGACTCTCA (sugars kkddddddddddkeke, PS)
target mRNA inhibition ([1]; KARPAS-229, 0.44444 µM): 39% | target mRNA inhibition ([1]; KARPAS-229, 1.33333 µM): 59% | target mRNA inhibition ([1]; KARPAS-229, 4 µM): 51% and 73% | target mRNA inhibition ([1]; KARPAS-229, 12 µM): 84%

GCTGTCACATCTCCAC (sugars kkkddddddddkekek, PS)
target mRNA inhibition ([1]; KARPAS-229, 4 µM): 0%

ATGAGTAATAGGAGTG (sugars k3 d10 k3, PS)
target mRNA inhibition ([1]; KARPAS-229, 0.44444 µM): 15% | target mRNA inhibition ([1]; KARPAS-229, 1.33333 µM): 46% | target mRNA inhibition ([1]; KARPAS-229, 4 µM): 56% and 52% | target mRNA inhibition ([1]; KARPAS-229, 12 µM): 70%

CGGTCTTTGAGGTCTG (sugars k3 d10 k3, PS)
target mRNA inhibition ([1]; KARPAS-229, 4 µM): 32%

GAGTCATGGGCTGAGG (sugars kkdddddddddkekek, PS)
target mRNA inhibition ([1]; KARPAS-229, 4 µM): 15%

CGGTCTTTGAGGTCTG (sugars kkkddddddddkekek, PS)
target mRNA inhibition ([1]; KARPAS-229, 4 µM): 56%

TGCACTGACACAGGCG (sugars kkkddddddddkekek, PS)
target mRNA inhibition ([1]; KARPAS-229, 4 µM): 0%

TCTGATATGATACCTA (sugars k3 d1 m1 d8 k3, PS)
target mRNA inhibition ([1]; A-431, 0.00412 µM): 1% | target mRNA inhibition ([1]; A-431, 0.01225 µM): 8% | target mRNA inhibition ([1]; A-431, 0.03704 µM): 35% | target mRNA inhibition ([1]; A-431, 0.11111 µM): 57% | target mRNA inhibition ([1]; A-431, 0.33333 µM): 77% | target mRNA inhibition ([1]; A-431, 1 µM): 81%

AAGATGGTGTTATCTC (sugars k3 d10 k3, PS)
target mRNA inhibition ([1]; KARPAS-229, 4 µM): 0%

GCACTGACACAGGCGG (sugars kddddddddddkekek, PS)
target mRNA inhibition ([1]; KARPAS-229, 4 µM): 0%

CTTCTGCAGGGAGTCA (sugars kkddddddddkekekk, PS)
target mRNA inhibition ([1]; KARPAS-229, 4 µM): 0%

CGGTGTATTTCCCTGT (sugars k3 d10 k3, PS)
target mRNA inhibition ([1]; KARPAS-229, 4 µM): 0%

TAGGAGTGAGACGAGC (sugars k3 d10 k3, PS)
target mRNA inhibition ([1]; KARPAS-229, 4 µM): 1%

GCATTCCATATACACA (sugars kkkddddddddkekek, PS)
target mRNA inhibition ([1]; KARPAS-229, 4 µM): 0%

TGAGTAGGACGAGTTA (sugars k3 d10 k3, PS)
target mRNA inhibition ([1]; KARPAS-229, 4 µM): 18%

TTATTTCTGCTCCAGG (sugars kdddddddddkekeke, PS)
target mRNA inhibition ([1]; KARPAS-229, 4 µM): 0%

CTCTAAACCATTCTAT (sugars k3 d10 k3, PS)
target mRNA inhibition ([1]; KARPAS-229, 4 µM): 0%

GGTCTTGACCTCCCGC (sugars kkddddddddddkeke, PS)
target mRNA inhibition ([1]; KARPAS-229, 4 µM): 0%

AGATGGTGTTATCTCC (sugars k3 d10 k3, PS)
target mRNA inhibition ([1]; KARPAS-229, 4 µM): 0%

ATACCCAATGCAACAT (sugars k3 d10 k3, PS)
target mRNA inhibition ([1]; KARPAS-229, 4 µM): 1%

CAGGTTCTTGGACTCT (sugars k3 d9 k3 e1, PS)
target mRNA inhibition ([1]; KARPAS-229, 4 µM): 0%

TGAGTCATGGGCTGAG (sugars kkkddddddddkekek, PS)
target mRNA inhibition ([1]; KARPAS-229, 4 µM): 0%

CCAATTTTGCATTCCA (sugars kkddddddddkekekk, PS)
target mRNA inhibition ([1]; KARPAS-229, 4 µM): 39%

GACTGTATTACCTATA (sugars k3 d10 k3, PS)
target mRNA inhibition ([1]; KARPAS-229, 4 µM): 41%

GTTATCTCCGTCCTGG (sugars k3 d9 k3 e1, PS)
target mRNA inhibition ([1]; KARPAS-229, 4 µM): 33%

GCATTCCATATACACA (sugars kkdddddddddkekek, PS)
target mRNA inhibition ([1]; KARPAS-229, 4 µM): 2%

CCACTGTGTACCCCAT (sugars k2 d8 e4 k2, PS)
target mRNA inhibition ([1]; KARPAS-229, 4 µM): 44%

RNA1{[moe](G)[sp].[moe](G)[sp].[moe](C)[sp].[cEt](A)[sp].[cEt](T)[sp].d(A)[sp].d(G)[sp].d(C)[sp].d(A)[sp].d(G)[sp].d(C)[sp].d(A)[sp].d(G)[sp].[moe](G)[sp].[moe](A)[sp].[moe](T)[sp].[moe](G)}$$$$V2.0
target mRNA inhibition ([2]; HepG2, 0.009375 µM): 17% | target mRNA inhibition ([2]; HepG2, 0.01875 µM): 32% | target mRNA inhibition ([2]; HepG2, 0.0375 µM): 52% | target mRNA inhibition ([2]; HepG2, 0.075 µM): 68% | target mRNA inhibition ([2]; HepG2, 0.15 µM): 77% | target mRNA inhibition ([2]; HepG2, 0.3 µM): 81%

RNA1{[moe](G)[sp].[cEt](G)[sp].[cEt](C)[sp].d(A)[sp].d(T)[sp].d(A)[sp].d(G)[sp].d(C)[sp].d(A)[sp].d(G)[sp].d(C)[sp].d(A)[sp].d(G)[sp].[cEt](G)[sp].[cEt](A)[sp].[moe](T)}$$$$V2.0
target mRNA inhibition ([2]; HepG2, 0.07 µM): 75% and 64%

RNA1{[moe](A)[sp].[moe](A)[sp].[moe](C)[sp].d(T)[sp].d(G)[sp].d(G)[sp].d(A)[sp].d(G)[sp].d(C)[sp].d(C)[sp].d(A)[sp].d(C)[sp].d(C)[sp].[cEt](A)[sp].[cEt](G)[sp].[cEt](C)}$$$$V2.0
target mRNA inhibition ([2]; HepG2, 0.07 µM): 56% and 63%

RNA1{[cEt](T)[sp].d(T)[sp].[cEt](T)[sp].d(A)[sp].[cEt](T)[sp].d(G)[sp].d(C)[sp].d(C)[sp].d(T)[sp].d(A)[sp].d(C)[sp].d(A)[sp].d(G)[sp].d(C)[sp].[moe](C)[sp].[moe](T)}$$$$V2.0
target mRNA inhibition ([2]; HepG2, 0.009375 µM): 12% | target mRNA inhibition ([2]; HepG2, 0.01875 µM): 14% | target mRNA inhibition ([2]; HepG2, 0.0375 µM): 32% | target mRNA inhibition ([2]; HepG2, 0.075 µM): 47% | target mRNA inhibition ([2]; HepG2, 0.15 µM): 62% | target mRNA inhibition ([2]; HepG2, 0.3 µM): 77%

RNA1{[moe](T)[sp].[moe](G)[sp].d(A)[sp].d(G)[sp].d(G)[sp].d(C)[sp].d(A)[sp].d(T)[sp].d(A)[sp].d(G)[sp].d(C)[sp].[moe](A)[sp].[moe](G)[sp].[moe](C)[sp].[moe](A)[sp].[moe](G)}$$$$V2.0
target mRNA inhibition ([2]; HepG2, 0.07 µM): 59% and 52%

RNA1{[moe](C)[sp].[moe](T)[sp].d(A)[sp].d(G)[sp].d(T)[sp].d(A)[sp].d(A)[sp].d(A)[sp].d(C)[sp].d(T)[sp].d(G)[sp].[moe](A)[sp].[moe](G)[sp].[moe](C)[sp].[moe](C)[sp].[moe](A)}$$$$V2.0
target mRNA inhibition ([2]; HepG2, 0.07 µM): 52% and 34%

RNA1{[moe](A)[sp].[moe](G)[sp].[moe](T)[sp].[moe](T)[sp].d(C)[sp].d(C)[sp].d(G)[sp].d(C)[sp].d(A)[sp].d(G)[sp].d(T)[sp].d(A)[sp].d(T)[sp].[moe](G)[sp].[moe](G)[sp].[moe](A)[sp].[moe](T)}$$$$V2.0
target mRNA inhibition ([2]; HepG2, 0.07 µM): 43% and 52%

RNA1{[moe](A)[sp].[moe](G)[sp].[moe](T)[sp].[moe](T)[sp].d(C)[sp].d(C)[sp].d(G)[sp].d(C)[sp].d(A)[sp].d(G)[sp].d(T)[sp].d(A)[sp].d(T)[sp].[moe](G)[sp].[moe](G)[sp].[moe](A)}$$$$V2.0
target mRNA inhibition ([2]; HepG2, 0.07 µM): 60% and 39%

RNA1{[moe](T)[sp].[moe](C)[sp].[moe](C)[sp].[moe](G)[sp].d(C)[sp].d(A)[sp].d(G)[sp].d(T)[sp].d(A)[sp].d(T)[sp].d(G)[sp].d(G)[sp].d(A)[sp].[moe](T)[sp].[moe](C)[sp].[moe](G)}$$$$V2.0
target mRNA inhibition ([2]; HepG2, 0.07 µM): 71% and 73%

Reference: the OligoGym collection
